Test results taken from ChEMBL document CHEMBL4414640, “Antiproliferative Pterocarpans and Coumestans from Lespedeza bicolor” (2019).
The source made the active and inactive calls. The rule behind the calls is not given here.

Tests used:
Jurkat [1] = test: Induction of cell cycle arrest in human Jurkat cells assessed as accumulation at G2/M phase at 10 uM incubated for 48 hrs by PI staining based cell counting method (reference value: 16.7%); type: functional
Jurkat [2] = test: Induction of apoptosis in human Jurkat cells assessed as late apoptotic cells at 10 uM incubated 48 hrs by annexin-V and 7AAD staining based flow cytometry (reference value: 3.78%); type: functional
Jurkat [3] = test: Induction of apoptosis in human Jurkat cells assessed as early apoptotic cells at 10 uM incubated 48 hrs by annexin-V and 7AAD staining based flow cytometry (reference value: 3.16%); type: functional
Jurkat [4] = test: Induction of apoptosis in human Jurkat cells at 10 uM incubated for 24 to 48 hrs by phase contrast microscopic method; type: functional, cell-based
Jurkat [5] = test: Induction of apoptosis in human Jurkat cells assessed as downregulation in BCL2 protein expression at 10 uM incubated for 48 hrs by Western blot analysis; type: functional, cell-based
Jurkat [6] = test: Induction of mitochondrial membrane potential loss in human Jurkat cells assessed as membrane potential at 10 uM incubated for 48 hrs by TMRM staining based flow cytometric analysis (reference value: 94.1%); type: functional
Jurkat [7] = test: Induction of apoptosis in human Jurkat cells assessed as viable cells at 10 uM incubated 48 hrs by annexin-V and 7AAD staining based flow cytometry (reference value: 91.9%); type: functional; conditions: read-out: Activity
Jurkat [8] = test: Induction of cell cycle arrest in human Jurkat cells assessed as accumulation at G1 phase at 10 uM incubated for 48 hrs by PI staining based cell counting method (reference value: 71.4%); type: functional
Jurkat [9] = test: Induction of cell cycle arrest in human Jurkat cells assessed as accumulation at S phase at 10 uM incubated for 48 hrs by PI staining based cell counting method (reference value: 12.2%); type: functional
Jurkat [10] = test: Induction of apoptosis in human Jurkat cells assessed as increase in PARP cleavage at 10 uM incubated for 48 hrs by Western blot analysis; type: functional, cell-based
Jurkat [11] = test: Antiproliferative activity against human Jurkat cells at 5 to 100 uM incubated for 48 hrs by MTS assay; type: functional, cell-based
Jurkat [12] = test: Induction of apoptosis in human Jurkat cells assessed as necrotic cells at 10 uM incubated 48 hrs by annexin-V and 7AAD staining based flow cytometry (reference value: 1.16%); type: functional

COc1c(CC=C(C)C)c(O)cc2oc(=O)c3c4cc(O)c(O)c(CC=C(C)C)c4oc3c12
Activity (Jurkat [1]): 7.05% | Activity (Jurkat [2]): 46.7% | Activity (Jurkat [3]): 12.3% | Activity (Jurkat [4]): Active | Activity (Jurkat [5]): Active | Activity (Jurkat [6]): 12.9% | viability at 10 µM (Jurkat [7]): 37.6% | Activity (Jurkat [8]): 82.3% | Activity (Jurkat [9]): 10.9% | Activity (Jurkat [10]): Active | Activity (Jurkat [11]): Active | Activity (Jurkat [12]): 3.4%

COc1c(C/C=C(\C)CCC=C(C)C)c(O)cc(O)c1-c1oc2c3c(c(O)cc2c1C=O)OC(C)(C)C=C3
Activity (Jurkat [11]): Active

COc1cc2c(cc1O)OC1c3c(OC)cc(O)c(C/C=C(\C)CCC=C(C)C)c3OCC21 (stereo unspecified)
Activity (Jurkat [1]): 9.3% | Activity (Jurkat [2]): 40.4% | Activity (Jurkat [3]): 11.3% | Activity (Jurkat [4]): Active | Activity (Jurkat [5]): Active | Activity (Jurkat [6]): 46.8% | viability at 10 µM (Jurkat [7]): 43.9% | Activity (Jurkat [8]): 82.1% | Activity (Jurkat [9]): 8.78% | Activity (Jurkat [10]): Active | Activity (Jurkat [11]): Active | Activity (Jurkat [12]): 4.43%

COc1c(CC=C(C)C)c(O)cc2c1[C@@H]1Oc3c(ccc(O)c3CC=C(C)C)[C@@H]1CO2
Activity (Jurkat [11]): Active

COc1c(CC=C(C)C)c(O)cc2c1[C@@H]1Oc3c(cc(O)c4c3C=CC(C)(C)O4)[C@@H]1CO2
Activity (Jurkat [11]): Active

COc1c(C/C=C(\C)CCC=C(C)C)c(O)cc2c1[C@@H]1Oc3c(cc(O)c4c3C=CC(C)(C)O4)[C@@H]1CO2
Activity (Jurkat [11]): Active

COc1c(CC=C(C)C)c(O)cc(O)c1-c1oc2c3c(c(O)cc2c1C=O)OC(C)(C)C=C3
Activity (Jurkat [11]): Active

COc1c(CC=C(C)C)c(O)cc2oc(=O)c3c4cc(O)c5c(c4oc3c12)C=CC(C)(C)O5
Activity (Jurkat [11]): Active

COc1c(CC=C(C)C)c(O)cc2c1[C@@H]1Oc3c(ccc4c3C=CC(C)(C)O4)[C@@H]1CO2
Activity (Jurkat [11]): Active
